Columns and labels:
Format in all cases: cell-based
monocytes in WB [1] = test: IL-6 secretion in citrated human whole blood (screening for inflammatory and anti-inflammatory potential); conditions: for LPS induced IL-6 production, variant compared to the unsubstituted peptide: in the presence of LPS, FIG. 7; for PGN induced IL-6 production, variant compared to the unsubstituted peptide: FIG. 8; for effect on LPS induced IL-6 secretion: 100 ng/ml LPS, FIG. 2; for effect on PCW induced IL-6 secretion: PCW 50 μg/ml from Staphylococcus aureus, FIG. 4; for IL-6 secretion in the absence of bacterial components: no bacterial component, peptide 0.09, 0.18, 0.36 and 0.71 mg/ml blood, FIG. 1
Text: Human whole blood (WB) contains besides red cells, platelets and plasma the white blood cells including the neutrophils and monocytes. Neutrophils and monocytes have receptors for bacterial products such as LPS, PGN and LTA. The bacterial products react directly or via specific binding proteins to receptors on the monocytes thereby stimulating them to secrete and release inflammatory cytokines comprising, but not limited to IL-1, IL-6, and TNF-α.
In the example to be described LPS from the E. coli is used to stimulate the monocytes in WB (anti-coagulated by use of citrate) and the activity is measured by subsequently quantifying IL-6 in plasma separated from WB. The activity of HBP, HBP derived peptides and analogues hereof are evaluated by their ability to: • 1. increase IL-6 secretion in absence of bacterial products • 2. increase IL-6 secretion in presence of bacterial products • 3. decrease IL-6 secretion in presence of bacterial products • 4. inhibit amplification of cytokine secretion induced by intact HBP
All operations must be carried out in LAF cabinet by observance of stringent aseptic techniques. All test tubes, pipette tips etc. must be pyrogen-free. Buffers must be prepared by use of sterile, […], preferably water for injection. Use 0.1% pyrogen-free BSA/PBS for all dilutions.
Add 20 μl of HBP derived peptide (in concentrations from 25 to 2500 μM) to 100 μl freshly drawn (less than 4 hours old) citrate whole blood from a healthy human volunteer. Add 20 μl bacterial component (LPS, LTA or PGN) in concentrations from 5 to 5000 ng/ml, preferably 50 to 500 ng/ml. Mix well and incubate for 16-18 hours in an atmosphere of 5% carbon dioxide and at least 95% relative humidity. At the end of the incubation add at least 5 volumes (700 μl) 0.1% BSA/PBS. Mix well. Centrifuge 10 min. at 10.000 g. Aspirate 500 μl supernatant. Determine the level of IL-6 by a specific human immune assay for human IL-6 with sensitivity of at least 3 pg/ml, e.g. Human IL-6 Kit from RnD Systems (cat. no. D 6050).
Negative controls: 100 μl WB plus 40 μl 0.1% BSA/PBS. Positive control: 100 μl WB plus 20 μl LPS (same concentration as used for testing the peptide) and 20 μl 0.1% BSA/PBS.
The human (h20-44) and porcine (p20-44) peptides were synthesized and tested in the screening assay described in Example 1. The following parameters were examined: (a) abililty to induce inflammation on their own (i.e. in the absence of any bacterial component), (b) ability to amplify or inhibit inflammation induced by a bacterial component, such as LPS from the Gram negative bacteria E. coli and PGN or Purified Cell Wall (PCW) from a Gram positive bacteria. As measure for immune stimulation secretion of the release of IL-6 in citrated whole blood was used. The peptides were tested in the concentrations 0.09, 0.18, 0.36 and 0.71 mg/ml blood. […]

monocytes in WB [2] = test: as above; conditions: 250 μg/ml PGN from S. aureus
Human Neutrophils (PMNs) = test: Apoptosis of isolated human neutrophils, TUNEL assay with flow cytometry; conditions: 25 μg HBP per ml sample; 24 h culture; control about 70%
Description: The screening for anti-apoptotic peptides is carried out essentially as described by Shrotri M S. et al., 2000.
Peripheral blood from normal volunteers was collected and PMNs were separated by density gradient using Ficoll-Hypaque (Sigma Chemical Co.). PMNs obtained were divided into 1-ml samples with […] and were treated and analyzed as per the protocols described below.
Cell pellets were obtained by centrifugation at 300 g and fixed with 1% paraformaldehyde for 15 min at 4° C. Cells were washed twice and permeabilized with 70% ice-cold ethanol and stored at […]. Cells samples were washed twice and stained by the terminal dUTP nick-end labeling (TUNEL) assay using the APO-BRDU kit (Phoenix Flow Systems, San Diego, Calif.), following the manufacturer's instructions. Briefly, in this assay, the enzyme terminal deoxynucleotidyl transferase (TdT) catalyzes the addition of nucleotides to DNA strand breaks in the apoptotic cells, which are subsequently labeled with fluorescein isothiocyanate (FITC)-conjugated antinucleotide antibodies. The fluorescent cells are the apoptotic cells that are then identified or assessed using the flow cytometer (EPICS Elite, Beckman-Coulter, Hialeah, Fla.). These apoptotic cells were also visually confirmed by confocal microscopy (Meridian Instruments Inc., Okemos, Mich.).
Time zero group. […]

[3] = PGN 50 μg/ml from Staphylococcus aureus, peptide 0.09-0.71 mg/ml blood, FIG. 3

KQGRHFCGGALIHARFVMTAASCFR (Peptide fragment amino acid residues 20-44 of hHBP with mutations N20K,Q44R) [hHBP 20-44 with both N- and C-terminal residues substituted with the corresponding porcine residues]
LPS induced IL-6 production, variant compared to the unsubstituted peptide (monocytes in WB [1]): nearly non-stimulating
PGN induced IL-6 production, variant compared to the unsubstituted peptide (monocytes in WB [1]; in the presence of PGN): inhibitory

KQGRPFCAGALVHPQFVLTAASCFR (Peptide fragment amino acid residues 20-44 of pHBP with mutation R34Q) [R34Q pHBP 20-44, substitution of arginine to glutamine in position 34 of pHBP 20-44]
effect on PGN induced IL-6 secretion (monocytes in WB [1]; in the presence of PGN, FIG. 6): completely abolished the inhibitory effect

KQGRPFCAGALVHPRFVLTAASCFQ (Peptide fragment amino acid residues 20-44 of pHBP with mutation R44Q) [pHBP 20-44 with C-terminal amino acid residue replaced with the human C-terminal residue]
LPS induced IL-6 production, variant compared to the unsubstituted peptide (monocytes in WB [1]): the same pattern was observed
PGN induced IL-6 production, variant compared to the unsubstituted peptide (monocytes in WB [1]; in the presence of PGN): the same pattern was observed

KQGRPFCAGALVHPRFVLTAASCFR (Peptide fragment amino acid residues 20-44 of pHBP) [porcine HBP 20-44]
effect on LPS induced IL-6 secretion (monocytes in WB [1]; peptide 0.09-0.71 mg/ml blood): significantly and dose-dependently inhibited
effect on PCW induced IL-6 secretion (monocytes in WB [1]; peptide 0.09-0.71 mg/ml blood): significantly and dose-dependently inhibited
effect on PGN induced IL-6 secretion (monocytes in WB [1]; [3]): significantly and dose-dependently inhibited
IL-6 secretion in the absence of bacterial components (monocytes in WB [1]): no significant or dose-dependent effect

NQGRHFCGGALIHARFVMTAASCFQ [human HBP 20-44]
sum of the IL-6 secretion induced by LPS and peptide individually (monocytes in WB [1]; 100 ng/ml LPS alone plus 0.71 mg/ml peptide alone): 14,178 pg/ml
IL-6 secretion, peptide and LPS together (monocytes in WB [1]; 100 ng/ml LPS plus 0.71 mg/ml peptide): 12,130 pg/ml
effect on LPS induced IL-6 secretion (monocytes in WB [1]; 0.71 mg/ml peptide): increased IL-6 secretion significantly
effect on LPS induced IL-6 secretion (monocytes in WB [1]; up to 0.36 mg/ml peptide): did not significantly increase
effect on PCW induced IL-6 secretion (monocytes in WB [1]; peptide 0.09-0.71 mg/ml blood): increased IL-6 secretion in dose-dependent way
effect on PGN induced IL-6 secretion (monocytes in WB [1]; [3]): increased IL-6 secretion in dose-dependent way
IL-6 secretion in the absence of bacterial components (monocytes in WB [1]): significant and dose-dependent increase

NQGRPFCAGALVHPRFVLTAASCFR (Peptide fragment amino acid residues 20-44 of pHBP with mutation K20N) [pHBP 20-44 whose N-terminal amino acid residue was substituted with the human N-terminal residue]
LPS induced IL-6 production, variant compared to the unsubstituted peptide (monocytes in WB [1]): less inhibitory
PGN induced IL-6 production, variant compared to the unsubstituted peptide (monocytes in WB [1]; in the presence of PGN): less inhibitory

hHBP 20-44 acetylated at the N-terminal amino group and amidated at the C-terminal carboxyl group: hHBP 20-44 acetylated at the N-terminal amino group and amidated at the C-terminal carboxyl group (Ac-NQGRHFCGGALIHARFVMTAASCFQ-NH2; cysteine pairing not given here; UniProt P20160 46-70, looked up, fragment)
fold stimulation of the PGN mediated IL-6 production (monocytes in WB [2]; FIG. 5 compared to FIG. 2): more than ten fold stimulation
effect on PGN induced IL-6 secretion (monocytes in WB [2]; normalized to PGN alone, FIG. 5): stimulated the IL-6 secretion in a dose dependant way

pHBP 20-44 acetylated and amidated at the N- and C-terminal amino acids: pHBP 20-44 acetylated and amidated at the N- and C-terminal amino acids, respectively (Ac-KQGRPFCAGALVHPRFVLTAASCFR-NH2; cysteine pairing not given here; UniProt P80015 46-70, looked up, fragment)
LPS induced IL-6 production, variant compared to the unsubstituted peptide (monocytes in WB [1]): more inhibitory
PGN induced IL-6 production, variant compared to the unsubstituted peptide (monocytes in WB [1]; in the presence of PGN): more inhibitory

B1: HBP: heparin-binding protein (HBP), isolated from azurophile granules of human PMNs; also termed CAP37, azurocidin (protein, listed as Homo sapiens)
chain: IVGGRKARPRQFPFLASIQNQGRHFCGGALIHARFVMTAASCFQSQNPGVSTVVLGAYDLRRRERQSRQTFSISSMSENGYDPQQNLNDLMLLQLDREANLTSSVTILPLPLQNATVEAGTRCQVAGWGSQRSGGRLSRFPRFVNVTVTPEDQCRPNNVCTGVLTRRGGICNGDGGTPLVCEGLAHGVASFSLGPCGRGPDFFTRVALFRDWIDGVLNNPGPGPA
amplification of cytokine secretion induced by bacterial products (monocytes in WB [1]): at least three-fold amplification
cytokine secretion by HBP in itself (monocytes in WB [1]; no bacterial product): no measurable effect
apoptosis (Human Neutrophils (PMNs)): ~45%

Source: patent US20060173162A1, “Bactericidak anti-apoptotic, pro-inflammatory and anti-inflammatory peptides of heparin-binding protein (hbp)” (priority 2002, published 2006)
